pEC50: −log10 of the molar value.

Holding throughout (format): cell-based
The target in test [1] is T1, δ-opioid receptor (DOR) (Homo sapiens, UniProt P41143). The test is described as follows: cAMP measurement in δ-opioid-expressing CHO cells (DiscoveRx cAMP Hunter). The text has this:
(§1) δ-opioid receptors (DOR) are coupled to inhibitory G proteins (Gi/o) which inhibit adenylyl cyclase activity, open K^+ channels and block Ca^2+ channels. They can also couple, in an agonist-dependent manner to β-arrestin 2, which lead to desensitization, and to MAP kinase (ERK) phosphorylation.
(§2) In Vitro Assessment of δ-Opioid Agonist Potency: […]
(§3) cAMP measurements will be made in δ-opioid-expressing CHO cells exposed to increasing agonist concentrations using DiscoveRx cAMP Hunter™ assay kits. β-arrestin recruitment will be measured in the presence of increasing agonist concentrations using DiscoveRx Pathunter® kits. Selectivity of mu- and kappa-opioid receptors will be performed using Cerep cAMP evaluation from ref. 1392 and 2071 (Cerep Le Bois l'Evéque, 86600 Celle l'Evescault, France).

The target of another test is kappa-opioid receptor (Rattus norvegicus, UniProt P34975). The test is described as follows: Selectivity versus kappa-opioid receptor, Cerep cAMP evaluation. The settings on record: ratio kappa/delta.
Description: as §3

Test [2] concerns the target T1, δ-opioid receptor (DOR). The test is described as follows: β-arrestin recruitment (DiscoveRx Pathunter).
Description: as §1, §2, §3
For orientation: Recruitment of arrestin is a read-out of receptor activation apart from second messengers.

The target in a further test is mu-opioid receptor (Homo sapiens, UniProt P35372). The experiment in a line: Selectivity versus mu-opioid receptor, Cerep cAMP evaluation. To be noted: ratio mu/delta.
Description: as §3

The mark [3] stands for this setting: δ-opioid-expressing CHO cells, agonist potency, read-out: EC-50 cAMP.
Where [4] appears, read: β-arrestin recruitment, agonist potency, read-out: EC-50 beta-arrestin.

Sequence of mu-opioid receptor (P35372 whole entry): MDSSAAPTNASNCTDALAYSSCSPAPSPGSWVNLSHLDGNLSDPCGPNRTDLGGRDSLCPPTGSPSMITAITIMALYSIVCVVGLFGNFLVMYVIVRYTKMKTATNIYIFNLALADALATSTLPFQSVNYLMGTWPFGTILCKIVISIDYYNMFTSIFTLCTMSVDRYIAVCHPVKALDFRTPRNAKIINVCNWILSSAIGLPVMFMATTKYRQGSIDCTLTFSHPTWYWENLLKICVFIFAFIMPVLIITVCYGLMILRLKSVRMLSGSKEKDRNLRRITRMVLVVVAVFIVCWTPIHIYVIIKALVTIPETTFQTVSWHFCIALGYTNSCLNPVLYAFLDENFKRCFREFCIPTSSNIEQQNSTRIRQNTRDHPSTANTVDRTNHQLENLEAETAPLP
Sequence of kappa-opioid receptor (P34975 whole entry): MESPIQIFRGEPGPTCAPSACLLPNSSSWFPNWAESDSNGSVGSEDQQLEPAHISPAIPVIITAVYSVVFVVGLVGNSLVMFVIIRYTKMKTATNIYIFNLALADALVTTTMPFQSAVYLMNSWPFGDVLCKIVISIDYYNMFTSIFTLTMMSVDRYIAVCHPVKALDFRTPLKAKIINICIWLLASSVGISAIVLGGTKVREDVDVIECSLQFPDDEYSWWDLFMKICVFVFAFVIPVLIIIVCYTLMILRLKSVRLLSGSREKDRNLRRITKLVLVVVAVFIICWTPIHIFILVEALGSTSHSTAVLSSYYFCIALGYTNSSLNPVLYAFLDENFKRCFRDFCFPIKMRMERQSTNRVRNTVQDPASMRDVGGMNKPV
T1 sequence (P41143 whole entry): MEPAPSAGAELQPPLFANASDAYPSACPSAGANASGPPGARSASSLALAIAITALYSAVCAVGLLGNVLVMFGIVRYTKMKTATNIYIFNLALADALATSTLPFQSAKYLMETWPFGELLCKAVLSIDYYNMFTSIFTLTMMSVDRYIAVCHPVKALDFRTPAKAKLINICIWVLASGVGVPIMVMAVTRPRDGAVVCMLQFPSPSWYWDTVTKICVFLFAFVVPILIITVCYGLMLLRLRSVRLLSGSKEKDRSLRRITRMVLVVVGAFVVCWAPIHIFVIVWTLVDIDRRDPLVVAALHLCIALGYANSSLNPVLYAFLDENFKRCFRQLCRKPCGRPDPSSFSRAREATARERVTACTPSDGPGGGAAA

Consider `CN(C)C(=O)c1ccc(C(=C2CCN(Cc3ccc(C(F)(F)F)nc3)CC2)c2cccc(C(N)=O)c2)cc1` [Example 1a, 4-[(3-Carbamoylphenyl)(1-{[6-(trifluoromethyl)pyridin-3-yl]methyl}piperidin-4-ylidene)methyl]-N,N-dimethylbenzamide], for which the pEC50 at δ-opioid receptor (DOR) [1] (setting [3]) was 8.55; at δ-opioid receptor (DOR) [2] (setting [4]) it was 7.55. Moreover, the “Selectivity (kappa/delta)” value on kappa-opioid receptor stood at 360. For the same compound, at mu-opioid receptor, the “Selectivity (mu/delta)” value turned out to be 360.
In the case of `CN(C)C(=O)c1ccc(C(=C2CCN(Cc3cncs3)CC2)c2cccc(C(N)=O)c2)cc1` [Example 1b, 4-[(3-Carbamoylphenyl)[1-(1,3-thiazol-5-ylmethyl)piperidin-4-ylidene]methyl]-N,N-dimethylbenzamide], the values for the pEC50 at δ-opioid receptor (DOR) [1] and on δ-opioid receptor (DOR) [2] were 9.30 and 8.40, respectively. In addition, on kappa-opioid receptor, the “Selectivity (kappa/delta)” value is listed as 1000. The “Selectivity (mu/delta)” value at mu-opioid receptor was found to be 100000.
With `Cc1nc[nH]c1CN1CCC(=C(c2ccc(C(=O)N(C)C)cc2)c2cccc(C(N)=O)c2)CC1` [Example 1c, 4-[(3-Carbamoylphenyl)({1-[(4-methyl-1H-imidazol-5-yl)methyl]piperidin-4-ylidene})methyl]-N,N-dimethylbenzamide], the results for the pEC50 at δ-opioid receptor (DOR) [1] (setting [3]) and at δ-opioid receptor (DOR) [2] (setting [4]) were 9.30 and 8.52, respectively. The “Selectivity (kappa/delta)” value on kappa-opioid receptor amounted to 1000. For the same compound, on mu-opioid receptor, the “Selectivity (mu/delta)” value is on record as 1000.

Values taken from patent publication US10118921B2, “Diarylmethylidene piperidine derivatives and their use as delta opoid receptor agnists” (PHARMNOVO AB, priority 2014, dated 2018).
